Measured values as given in US12371426B2, “Pyridazine derivatives as SMARCA2/4 degraders” (Aurigene Discovery Technologies Limited, priority 2018, dated 2025).

The molecules below were run on NCI-H929 cells (assay: Anti proliferative activity in NCI-H929 cell line by Cell Titer Glo assay). Settings: Homo sapiens, 72 h, 3 days compound incubation, CellTiter Glo, read-out: Anti-proliferative activity IC50 group (NCI-H929 cells).
Type: cell-based
Description: Determination of Anti Proliferative Activity of Compounds in NCI-H929 and NCI-H838 Cell Lines by Cell Titer Glo® (promega) assay:
NCI-H929 (ATCC CRL-9068) or NCI-H838 (ATCC CRL-5844) cells were seeded in 96 well plate flat black clear bottom plates (Corning, Cat. No 3904) using complete RPMI-1640 media. Next day, compounds listed in the present invention were added to cells from 10 mM stocks made in DMSO (Sigma Cat no. D2650). Each concentration of compound was tested in triplicate with DMSO concentration at a final percentage not exceeding 0.3 in the cells. After the compound incubation (3 days for H929 and 8 days for H838) assay was terminated using 50 μl of CellTiter Glo® reagent (Promega, Cat. no G7572). CellTiter Glo® Luminescent reagent determines the number of viable cells based on quantitation of ATP present which is an indicator of cell number and metabolic activity. Luminescence readings were taken in Victor-3 instrument. Percent inhibition of proliferation was calculated using formula, % inhibition=100−(luminescence value of test/luminescence value of DMSO control)*100. DMSO control (0%)=Cells in complete media with DMSO; blank=Media alone containing DMSO. IC50 was calculated using graph pad prism software.
Herein group “A” refers to IC50 value lower than 1 μM, “B” refers to IC50 value between 1-10 μM (both inclusive) and “C” refers to IC50 value higher than 10 μM or less than 50% activity at 10 μM.

IC50 [µM] | Structure (SMILES)
1 to 10 | Cc1ncsc1-c1ccc([C@H](C)NC(=O)[C@@H]2C[C@H](O)CN2C(=O)[C@@H](NC(=O)CN2CCN(c3cc(-c4ccccc4O)nnc3N)CC2)C(C)(C)C)cc1 [Compound 106]
< 1 | Cc1ncsc1-c1ccc([C@H](C)NC(=O)[C@@H]2C[C@@H](O)CN2C(=O)[C@@H](NC(=O)CCCCCCCC(=O)N2CCN(c3cc(-c4ccccc4O)nnc3N)CC2)C(C)(C)C)cc1 [Compound 111]
> 10 | Cc1ncsc1-c1ccc([C@H](C)NC(=O)[C@@H]2C[C@@H](O)CN2C(=O)[C@@H](NC(=O)CN2CCN(c3cc(-c4ccccc4O)nnc3O)CC2)C(C)(C)C)cc1 [Compound 54, (2S,4R)-4-hydroxy-1-((S)-2-(2-(4-(3-hydroxy-6-(2-hydroxyphenyl)pyridazin-4-yl)piperazin-1-yl)acetamido)-3,3-dimethylbutanoyl)-N—((S)-1-(4-(4-methylthiazol-5-yl)phenyl)ethyl)pyrrolidine-2-carboxamide]
> 10 | Cc1ncsc1-c1ccc([C@H](C)NC(=O)[C@@H]2C[C@@H](O)CN2C(=O)[C@@H](NC(=O)CCCC(=O)N2CCN(c3cc(-c4ccccc4O)nnc3N)CC2)C(C)(C)C)cc1 [Compound 114]
1 to 10 | Cc1ncsc1-c1ccc([C@H](C)NC(=O)[C@@H]2C[C@H](O)CN2C(=O)[C@@H](NC(=O)CCCCCCC(=O)N2CCN(c3cc(-c4ccccc4O)nnc3N)CC2)C(C)(C)C)cc1 [Compound 115]
1 to 10 | Cc1ncsc1-c1ccc([C@H](C)NC(=O)[C@@H]2C[C@@H](O)CN2C(=O)[C@@H](NCC(=O)N2CCN(c3cc(-c4ccccc4O)nnc3N)CC2)C(C)(C)C)cc1 [Compound 49, (2S,4R)-1-((S)-2-((2-(4-(3-amino-6-(2-hydroxyphenyl)pyridazin-4-yl)piperazin-1-yl)-2-oxoethyl)amino)-3,3-dimethylbutanoyl)-4-hydroxy-N—((S)-1-(4-(4-methylthiazol-5-yl)phenyl)ethyl)pyrrolidine-2-carboxamide]
1 to 10 | Cc1ncsc1-c1ccc([C@H](C)NC(=O)[C@@H]2C[C@@H](O)CN2C(=O)[C@@H](NC(=O)CC2CN(c3cc(-c4ccccc4O)nnc3N)C2)C(C)(C)C)cc1 [Compound 104]

Second part, the molecule before the results:

Structure (SMILES) | IC50 [µM]
Nc1nnc(-c2ccccc2O)cc1N1CCC(NC(=O)CCCCCCCCCC(=O)Nc2cccc3c2CN(C2CCC(=O)NC2=O)C3=O)CC1 (stereo not shown) [Compound 18] | > 10
Nc1nnc(-c2ccccc2O)cc1N1CCC(NC(=O)COCC(=O)Nc2cccc3c2C(=O)N(C2CCC(=O)NC2=O)C3=O)CC1 (stereo not shown) [Compound 16] | > 10
Cc1ncsc1-c1ccc([C@H](C)NC(=O)[C@@H]2C[C@@H](O)CN2C(=O)[C@@H](NC(=O)CCCCCNC(=O)C2CCN(c3cc(-c4ccccc4O)nnc3N)CC2)C(C)(C)C)cc1 [Compound 113] | 1 to 10
Cc1ncsc1-c1ccc(CNC(=O)[C@@H]2C[C@@H](O)CN2C(=O)[C@@H](NC(=O)CCCCCCC(=O)N2CCN(c3cc(-c4ccccc4O)nnc3N)CC2)C(C)(C)C)cc1 [Compound 34] | > 10
Nc1nnc(-c2ccccc2O)cc1N1CCN(C(=O)CCCC(=O)Nc2cccc3c2CN(C2CCC(=O)NC2=O)C3=O)CC1 (stereo not shown) [Compound 25] | > 10
Cc1ncsc1-c1ccc(CNC(=O)[C@@H]2C[C@@H](O)CN2C(=O)[C@@H](NC(=O)COCCOCCOCCNC(=O)C2CCN(c3cc(-c4ccccc4O)nnc3N)CC2)C(C)(C)C)cc1 [Compound 4] | > 10
Nc1nnc(-c2ccccc2O)cc1N1CCC(NC(=O)CCCCCCC(=O)Nc2cccc3c2C(=O)N(C2CCC(=O)NC2=O)C3=O)CC1 (stereo not shown) [Compound 19] | > 10

The molecules below were run against SMARCA2 (Homo sapiens, UniProt P51531) (assay: SMARCA2 degradation in NCI-H838 cells by Western blot). Settings: 16 hours.
Type: cell-based
Design: endogenous in cells; host or cells: NCI-H838 (ATCC CRL-5844)
Description: Determination of SMARCA2 Degradation in NCI-1H838 Cells by Western Blot:
NCI-1H838 (ATCC CRL-5844) was plated in 6 well plates using complete RPMI-1640 media. Next day, compounds of present invention were added to cells from 10 mM stocks made in DMSO (Sigma Cat no. D2650). Each concentration of compound was tested with DMSO concentration not exceeding a final percentage of 0.3 in the cells. Cells were incubated with the compound for 16 hours followed by harvesting with 1× RIPA lysis buffer (Thermo Fischer, catalogue number #89900) containing protease inhibitor cocktail (Sigma catalogue number #P-8340). Equal amount of protein was loaded on SIDS PAGE gel for electrophoresis. Western blot was carried out for detection of SMARCA2 with antibody (Cell signaling technologies, catalogue number #11966). Beta Actin (Santa Cruz, catalogue number #69879) was used as loading control. Percentage of SMARCA2 degradation was calculated using formula % degradation=100−(normalized band intensity in treated sample/normalized band intensity in DMSO sample)*100”.
Selected compounds of the present invention were screened in the above mentioned assay procedures for determination of % SMARCA2 degradation at 100 nM and the results are summarized in below table 31.

Chain of SMARCA2 (P51531 whole entry): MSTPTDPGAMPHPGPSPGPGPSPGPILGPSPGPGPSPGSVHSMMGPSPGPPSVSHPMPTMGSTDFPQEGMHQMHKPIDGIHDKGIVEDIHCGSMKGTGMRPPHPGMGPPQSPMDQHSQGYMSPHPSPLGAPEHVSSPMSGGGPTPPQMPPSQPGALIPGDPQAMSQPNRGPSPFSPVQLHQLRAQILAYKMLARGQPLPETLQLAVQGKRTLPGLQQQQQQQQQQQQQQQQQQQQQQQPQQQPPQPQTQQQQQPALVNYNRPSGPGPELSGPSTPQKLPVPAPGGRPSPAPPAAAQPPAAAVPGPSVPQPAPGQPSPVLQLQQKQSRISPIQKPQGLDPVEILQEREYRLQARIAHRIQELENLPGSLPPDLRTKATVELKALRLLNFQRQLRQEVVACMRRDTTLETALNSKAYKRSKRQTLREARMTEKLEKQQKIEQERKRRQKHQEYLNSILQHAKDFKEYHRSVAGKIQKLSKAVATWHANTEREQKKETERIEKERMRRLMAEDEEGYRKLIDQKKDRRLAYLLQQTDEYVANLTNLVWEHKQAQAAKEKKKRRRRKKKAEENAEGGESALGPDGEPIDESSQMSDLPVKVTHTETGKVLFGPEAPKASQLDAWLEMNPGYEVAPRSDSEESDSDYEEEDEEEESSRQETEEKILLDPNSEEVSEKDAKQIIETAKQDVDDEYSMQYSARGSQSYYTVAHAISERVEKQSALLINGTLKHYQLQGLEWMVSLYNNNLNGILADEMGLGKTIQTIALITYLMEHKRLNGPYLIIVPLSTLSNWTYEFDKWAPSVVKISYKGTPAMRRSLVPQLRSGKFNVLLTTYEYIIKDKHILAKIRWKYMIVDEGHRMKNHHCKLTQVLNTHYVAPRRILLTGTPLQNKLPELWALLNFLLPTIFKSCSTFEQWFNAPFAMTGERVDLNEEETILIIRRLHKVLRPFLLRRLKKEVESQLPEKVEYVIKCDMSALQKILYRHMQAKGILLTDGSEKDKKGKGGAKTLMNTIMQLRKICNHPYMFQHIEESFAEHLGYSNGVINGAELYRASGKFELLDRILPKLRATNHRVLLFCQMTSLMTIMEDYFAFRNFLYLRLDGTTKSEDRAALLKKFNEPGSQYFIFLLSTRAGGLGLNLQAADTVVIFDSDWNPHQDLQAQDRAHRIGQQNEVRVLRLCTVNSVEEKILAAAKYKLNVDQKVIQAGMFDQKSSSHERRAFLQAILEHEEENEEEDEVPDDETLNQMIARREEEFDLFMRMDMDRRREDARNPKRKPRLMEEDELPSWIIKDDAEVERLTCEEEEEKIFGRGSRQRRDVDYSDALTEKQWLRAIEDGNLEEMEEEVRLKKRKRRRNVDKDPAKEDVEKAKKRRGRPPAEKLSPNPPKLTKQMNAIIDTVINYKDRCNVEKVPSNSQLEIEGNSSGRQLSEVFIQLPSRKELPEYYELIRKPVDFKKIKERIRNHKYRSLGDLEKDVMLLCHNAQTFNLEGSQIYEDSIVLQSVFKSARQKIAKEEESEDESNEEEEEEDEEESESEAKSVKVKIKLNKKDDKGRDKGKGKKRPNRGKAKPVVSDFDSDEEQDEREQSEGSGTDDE

SMARCA2 @ 100 nM (% SMARCA2 degradation) [%] | Structure (SMILES)
74 | Cc1ncsc1-c1ccc([C@H](C)NC(=O)[C@@H]2C[C@@H](O)CN2C(=O)[C@@H](NC(=O)CN2CCN(c3cc(-c4ccccc4N)nnc3N)CC2)C(C)(C)C)cc1 [Compound 93]
94 | Cc1ncsc1-c1ccc([C@H](C)NC(=O)[C@@H]2C[C@@H](O)CN2C(=O)[C@@H](NC(=O)CN2CCN(c3cc(-c4ccccc4O)nnc3N)CC2)C(C)(C)C)cc1.Cl [Compound 65, (2S,4R)-1-((S)-2-(2-(4-(3-amino-6-(2-hydroxyphenyl)pyridazin-4-yl)piperazin-1-yl)acetamido)-3,3-dimethylbutanoyl)-4-hydroxy-N—((S)-1-(4-(4-methylthiazol-5-yl)phenyl)ethyl)pyrrolidine-2-carboxamide hydrochloride]
21 | Cc1ncsc1-c1ccc([C@H](C)NC(=O)[C@@H]2C[C@@H](O)CN2C(=O)[C@@H](NC(=O)CN2CCN(c3cc(C(N)=O)nnc3N)CC2)C(C)(C)C)cc1 [Compound 74, 6-amino-5-(4-(2-(((S)-1-((2S,4R)-4-hydroxy-2-(((S)-1-(4-(4-methylthiazol-5-yl)phenyl)ethyl)carbamoyl)pyrrolidin-1-yl)-3,3-dimethyl-1-oxobutan-2-yl)amino)-2-oxoethyl)piperazin-1-yl)pyridazine-3-carboxamide]
13 | Cc1ncsc1-c1ccc([C@H](C)NC(=O)[C@@H]2C[C@@H](O)CN2C(=O)[C@@H](NC(=O)OC2CCN(c3cc(-c4ccccc4O)nnc3N)CC2)C(C)(C)C)cc1 [Compound 80]

The next lines start with the molecule.

Structure (SMILES) | SMARCA2 @ 100 nM (% SMARCA2 degradation) [%]
Cc1ncsc1-c1ccc([C@H](C)NC(=O)[C@@H]2C[C@@H](O)CN2C(=O)[C@@H](NC(=O)CC2CCN(c3cc(-c4cc(F)ccc4F)nnc3N)CC2)C(C)(C)C)cc1 [Compound 100] | 9
Cc1ncsc1-c1ccc(C(NC(=O)[C@@H]2C[C@@H](O)CN2C(=O)[C@@H](NC(=O)CC2CCN(c3cc(-c4cccc(F)c4O)nnc3N)CC2)C(C)(C)C)C(F)(F)F)cc1 (single isomer, unassigned) [Compound 77] | 9
Nc1nnc(-c2ccccc2O)cc1N1CCN(CCC(=O)Nc2cccc3c2C(=O)N(C2CCC(=O)NC2=O)C3=O)CC1 (stereo not shown) [Compound 69] | 12
Cc1ncsc1-c1ccc(C(NC(=O)[C@@H]2C[C@@H](O)CN2C(=O)[C@@H](NC(=O)CC2CCN(c3cc(-c4cccc(F)c4O)nnc3N)CC2)C(C)(C)C)C(F)(F)F)cc1 (single isomer, unassigned) [Compound 78] | 26
Cc1ncsc1-c1ccc([C@H](C)NC(=O)[C@@H]2C[C@@H](O)CN2C(=O)[C@@H](NC(=O)Cn2cc(-c3cc(-c4cccc(F)c4O)nnc3N)cn2)C(C)(C)C)cc1 [Compound 62, (2S,4R)-1-((S)-2-(2-(4-(3-amino-6-(3-fluoro-2-hydroxyphenyl)pyridazin-4-yl)-1H-pyrazol-1-yl)acetamido)-3,3-dimethylbutanoyl)-4-hydroxy-N—((S)-1-(4-(4-methylthiazol-5-yl)phenyl)ethyl)pyrrolidine-2-carboxamide] | 27
Nc1nnc(-c2ccccc2O)cc1N1CCN(CCCC(=O)Nc2cccc3c2C(=O)N(C2CCC(=O)NC2=O)C3=O)CC1 (stereo not shown) [Compound 70] | -11
CNC(=O)c1cc(N2CCN(CC(=O)N[C@H](C(=O)N3C[C@H](O)C[C@H]3C(=O)N[C@@H](C)c3ccc(-c4scnc4C)cc3)C(C)(C)C)CC2)c(N)nn1 [Compound 75, 6-amino-5-(4-(2-(((S)-1-((2S,4R)-4-hydroxy-2-(((S)-1-(4-(4-methylthiazol-5-yl)phenyl)ethyl)carbamoyl)pyrrolidin-1-yl)-3,3-dimethyl-1-oxobutan-2-yl)amino)-2-oxoethyl)piperazin-1-yl)-N-methylpyridazine-3-carboxamide] | 12
